Assay results from patent US8748601B2, “Selective serine/threonine kinase inhibitors” (The Regents of the University of California, priority 2003, dated 2014).

Assays:
[1] = tested on: rpS6 Ser235/236 phosphorylation; test: PMA-stimulated rpS6 Ser235/236 phosphorylation in HEK-293 cells; type: cell-based; conditions: 300 nM fmk-pa together with rapamycin, HEK-293, PMA
Procedure: (§1) Confluent HEK-293 cells in 12-well plates were deprived of serum for 2 h and subsequently treated with the indicated concentrations of inhibitors for 1 h at 37° C. After stimulation with PMA ([…]) for 30 min, cells were washed with cold PBS and harvested in either PBS lysis buffer (FIG. 9c) or hypertonic lysis buffer (FIG. 10). Click chemistry was performed with TAMRA-N3 in lysates from cells treated with fmk-pa. Proteins were analyzed by in-gel fluorescence scanning or Western blotting.
Serum-starved HEK-293 cells were treated with the indicated concentrations of rapamycin in the absence (left lanes) or presence (right lanes) of 300 nM fmk-pa for 1 h and stimulated with PMA (100 ng/mL) for 30 min. Proteins were resolved by 10% SDS-PAGE and detected by Western blotting with antibodies to phospho-Ser235/236 rpS6, phospho-Ser386 RSK, and total RSK2. […] Percent rpS6 Ser235/236 phosphorylation was determined by quantification of Western blots (e.g., FIG. 3a) relative to DMSO controls using ImageJ. Data represent mean±s.e.m. from 3 independent experiments.

Rsk2 CTD = target: T1, Rsk2 CTD (Homo sapiens, UniProt P51812); test: Rsk2 CTD in vitro kinase assay, wild type; type: biochemical; conditions: read-out: IC50 for RSK2
T1 construct: We tested the halomethylketones against the Rsk2 CTD by adapting an in vitro kinase assay; made in house
T1 sequence (P51812 422-679 limits assumed): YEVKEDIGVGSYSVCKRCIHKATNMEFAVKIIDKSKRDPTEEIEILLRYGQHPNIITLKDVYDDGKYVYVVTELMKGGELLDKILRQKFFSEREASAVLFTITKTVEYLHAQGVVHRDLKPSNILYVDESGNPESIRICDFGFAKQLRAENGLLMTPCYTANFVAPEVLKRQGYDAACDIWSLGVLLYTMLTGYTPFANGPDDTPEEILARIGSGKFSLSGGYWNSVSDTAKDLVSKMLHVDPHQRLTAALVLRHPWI
Source text: We tested the halomethylketones against the Rsk2 CTD by adapting an in vitro kinase assay developed by Chrestensen and Sturgill, J, Biol. Chem. 277:27733 (2002).

Rsk [2] = test: Inhibition of RSK by fmk-pa (click chemistry, PMA-stimulated HEK-293 cells); type: cell-based; conditions: FIG. 9
Procedure: Click reactions were performed as previously described by Speers et al., “Profiling enzyme activities in vivo using click chemistry methods”. Chem Biol 11, 535-46 (2004). Briefly, RSK2 CTD (30 nM) pretreated with the indicated concentrations of fmk-pa, or lysates from fmk-pa-pretreated cells were incubated with TAMRA-N3 or biotin-N3 ([…]), TCEP (1 mM), CuSO4 (1 mM), and TBAT ([…]) in PBS [pH 7.4] containing 1% SDS for 1 h at room temperature.
as §1
RSK2 CTD was treated with the indicated concentrations of fmk-pa for 1 h followed by […] fmk-BODIPY for 1 h. After click conjugation with TAMRA-N3 (see Methods), proteins were resolved by 10% SDS-PAGE and detected by sequential in-gel fluorescence scanning using filters specific for TAMRA and BODIPY. […] Proteins were resolved by 10% SDS-PAGE and detected by in-gel fluorescence scanning (left) and Coomassie blue staining (right).

RSK [3] = test: RSK modification by fmk-pa in primary mouse macrophages (click chemistry); type: cell-based; conditions: pretreated for 1 h, LPS-stimulated
Procedure: Confluent macrophages in 12-well plates were incubated in DMEM supplemented with 20 mM Hepes [pH 7.4] and 0.5% FBS for […] prior to treatment with the indicated concentrations of fmk-pa for 1 h at 37° C. After stimulation with either PMA ([…]) or LPS ([…]) for 30 min, cells were washed with cold PBS and harvested in PBS lysis buffer. Click chemistry was performed with TAMRA-N3 and proteins were subsequently analyzed by in-gel fluorescence scanning or Western blotting.
FIG. 11. Fmk-pa and click chemistry reveal the existence of a CTD-independent pathway for RSK Ser386 phosphorylation. […] Macrophages were cultured in 0.5% serum for 20 h and subsequently treated with the indicated concentrations of fmk-pa for 1 h. Cells were stimulated with either PMA (100 ng/mL) or LPS (1 mg/mL) for 30 min and harvested in PBS. Proteins were resolved by 10% SDS-PAGE and detected by Western blotting with antibodies to phospho-Ser386 RSK and total RSK2. […] Data represent mean±s.e.m. from 3 independent experiments. […] Proteins were resolved by 10% SDS-PAGE and detected by in-gel fluorescence scanning. […] Eluted proteins were resolved by 10% SDS-PAGE and detected by Western blotting with streptavidin-HRP or antibodies to RSK1, RSK2, and phospho-Ser386 RSK.

C#CCNCCCn1c(C(=O)CF)c(-c2ccc(C)cc2)c2c(N)ncnc21 [propargylamine-fmk 18]
Inhibition of rpS6 phosphorylation [1]: additive inhibition
IC50 (Rsk2 CTD): < 1000 nM
Inhibition of RSK (Rsk [2]): irreversible, selective, and potent inhibition
RSK modification in intact macrophages (RSK [3]): saturable RSK modification
